Measurements reported in patent publication US20200270310A1, “MAFG AS A POTENTIAL THERAPEUTIC TARGET TO RESTORE CHEMOSENSITIVITY IN PLATINUM-RESISTANT CANCER CELLS” (FUNDACÓIN PARA LA INVESTIGACIÓN BIOMÉDICA DEL HOSPITAL …, priority 2017, published 2020).

B1: GCGGATGAAGACTGGTGTCGATGCATGTGTAGTGCATTTCGAGCCGTTCTATTGGTGTGCCCTAAATACGAGCAAC (nucleic acid)
chain: GCGGATGAAGACTGGTGTCGATGCATGTGTAGTGCATTTCGAGCCGTTCTATTGGTGTGCCCTAAATACGAGCAAC
modifications: chemistry not given here
notes: DNA aptamer selected against the MAFG protein by SELEX

Key:
Type in all cases: cell-based, human
H1299 cells [1] = assay: Viability to CDDP with and without apMAFG6F
Description: The human cancer cells H23 and A2780, and the HEK-293T epithelial cells were purchased from ATCC (Manassas, USA) and ECACC (Sigma, Spain) and cultured as recommended. The CDDP-resistant variants H23R and A2780R were established in our laboratory as previously described, using CDDP (Farma Ferrer, Spain) for cell viability assays. To validate the results obtained from the resistant cell lines established in our laboratory, we also used the CDDP-resistant lung cancer cell line H1299, with IC50 over 7, purchased from ATCC and maintained as recommended.
(§1) HEK293 and H23S/R cells were seeded into 96-well plates then transfected with 5, 12.5, 25, 75 and 100 nM of MAFG aptamers or treated with PBS-Mg using Jet Pei PolyPlus transfection reagent (PolyPlus Transfection, USA). The dose of 25 nM aptamer was afterwards used in combination with increased doses of CDDP to assay viability and ROS production as described above. To confirm the aptamer-transfection efficiency cells were seeded in 24-well plates for aptamer isolation and confirmation of aptamer transfection by quantitative analysis. A Myc-DDK-tagged ORF clone of MAFG the negative control pCMV6 were used for in transient transfection (OriGene, USA) in combination with MAFG-aptamers following the same procedure.

H23S cells [2] = assay: ROS production after CDDP exposure, sensitive cells
Protocol: FIG. 2. Viability assays and Reactive Oxygenated Species detection after CDDP treatment in H23 cell lines. (A) Viability to CDDP in H23S (left) and H23R (right) at 24, 48 and 72 hours and 6 concentrations of CDDP measured by MTT assay. (B) Increment of ROS production in H23S (left) and H23R (right) after 24, 48 and 72 hours of CDDP treatment. $: 72h (vs Basal).
H23/A2780 cells were cultured in 96-well black plates at density of 10,000 cells/well. Cells were treated with 6 different doses of CDDP for 24, 48 and 72 h in RPMI containing 10% FBS. Then treatments were removed and cells were loaded with the fluorescent probe 2′,7′-dichlorodihydrofluorescein diacetate (H2DCFDA) (10 μM) for 45 minutes in RPMI medium (FBS free). Cells were washed twice with RPMI (10% FBS), and fluorescence was recorded in a Fluostar Optima, each hour, over 4 hours period. […] ROS production was calculated dividing the mean H2DCFDA fluorescence by the mean viability. […] All experiments included cells treated with RPMI alone (Basal), and one well without cells as fluorescence basal.
H23/A2780 cells were cultured in 96-well black plates at density of 10,000 cells/well. […] Cells were washed twice with RPMI (10% FBS), and fluorescence was recorded in a Fluostar Optima at 520 nm after excitation at 485 nm. […] ROS production was calculated dividing the mean H2DCFDA fluorescence by the mean viability. […]

A2780S cells = assay: Response to CDDP after overexpression of miR-7 candidate target genes
Protocol: (§2) cDNA plasmids transfection: a Myc-DDK-tagged ORF clone of MAFG, ELK-1 or ABCA1 and the negative control pCMV6 were used for in transient transfection (OriGene, USA). H23 and A2780 cells were plated onto 60-mm dishes at 6×10^5 cells/dish and transfected with a negative control, MAFG, ELK-1 or ABCA1 vectors (IDs: RC221486; RC208921 and RC221861) using jet-PEI DNA Transfection Reagent (PolyPlus Transfection, USA). For stable overexpression, lentiviruses carrying ELK-1 cDNA (Applied Biological Materials, Canada) were obtained by cotransfecting 15 μg of the specific lentiviral vector (pGIPZ-nonsilencing or pLenti-GIII-CMV-hELK-1-GFP-2A-Puro) and […] of each packaging vector (pCD-NL-BH and pMD2-VSV-G) in 10 million HEK 293T cells using Lipofectamine 2000 (Invitrogen, USA). Supernatants were taken at 48 hours posttransfection. A2780S cells were plated onto 60-mm dishes at 1×10^5 cells/dish and transduced with supernatant carrying nonsilencing or ELK-1 lentivirus, and polybrene was added (5 μg/ml).
(§3) To determine if the expression of the miR-7 candidate target genes was linked to CDDP response, we conducted their in transient overexpression in the sensitive cells comparing their response to CDDP with their parental resistant and sensitive cell lines, both transfected with an empty vector.

H23S cells [3] = assay: as above
Protocol: as §2, §3

NRF2 = assay: Semiquantitative RT-PCR expression after cisplatin treatment
Protocol: (§4) For semiquantitative RT-PCR, 500 ng of total RNA isolated from cell lines was used for RT reaction using PrimeScript™ RT Master (Clontech-Takara, USA) and subsequent semiquantitative PCR using Promega PCR Mix (Promega, USA) as previously described. Relative quantification was performed by measuring the intensity of band amplified using ImageJ software. Primers for HMOX1 (F: 5′-[…]-3′; R: 5′-[…]-3′), MAFG (F: 5′-[…]-3′; R: 5′-[…]-3′) and GAPDH (F: 5′-GAGAGACCCTCACTGCTG-3′; R: 5′-[…]-3′) were designed to include the probe from the array in order to assure the correct transcript identification.

H1299 cells [4] = assay: Expression of MAFG and HMOX1 in cells carrying the aptamer; details: cells carrying apMAFG6F
Protocol: as §4

H23R cells = assay: Semiquantitative RT-PCR of MAFG and HMOX1 in aptamer-transfected cells after platinum treatment; details: aptamer-transfected H23R after platinum treatment vs H23R
Protocol: as §4

[5] = test system: H23S cells overexpressing MAFG; assay: CDDP sensitivity of MAFG-overexpressing cells combined with aptamer
Protocol: as §1

[6] = versus sensitive line with empty vector

Molecule | CDDP IC50 (H1299 cells [1]; H1299, as stated in materials, unit not given) | CDDP IC50 (H1299 cells [1]; untransfected H1299) [µg/mL] | ROS production versus basal untreated cells (H23S cells [2]; 3.00 μg/ml CDDP) [%] | ROS after treatment with the drug (H23S cells [2]; Example 1) | response to CDDP after transient ELK-1 overexpression (A2780S cells; 48 h of exposure to the drug) | sensitivity to CDDP after stable ELK-1 overexpression (A2780S cells; lentiviral transduction) | CDDP resistance index after MAFG overexpression (A2780S cells; [6]) | CDDP RI after ABCA1 overexpression (H23S cells [3]; versus empty vector, not statistically significant (p=0.796)) | CDDP-RI after MAFG overexpression (H23S cells [3]; [6]) | NRF2 expression after cisplatin treatment (NRF2) | HMOX1 expression (H1299 cells [4]) | MAFG expression (H1299 cells [4]) | HMOX1 expression (H23R cells) | MAFG expression (H23R cells) | CDDP sensitivity of MAFG-overexpressing cells with aptamer [5]
[NH2][Pt]([NH2])([Cl])[Cl] [CDDP, Cisplatin] | over 7 | 10 | 300 | increased | did not change the response to CDDP | did not change the sensitivity to CDDP | 1.6 | 1.5 | 1.7 | did not changed | – | – | – | – | –
B1 | – | – | – | – | – | – | – | – | – | – | decrease | decrease | decrease in their expression | decrease in their expression | rescued the phenotype and re-sensitized the cells
